The record followed here is US20240254140A1, “COMPOUNDS AND THEIR USE IN THE TREATMENT OF BACTERIAL INFECTION” (Hoffmann-La Roche Inc., priority 2021, published 2024).

≈ marks a conversion by molar mass, not a printed value.

One may read the MIC as the lowest concentration that inhibits growth of the organism.

One assay has as its system Escherichia coli ATCC 25922. The assay can be described thus: Minimal Inhibitory Concentration (MIC) determination, broth microdilution. To be noted: ATCC25922; strain Escherichia coli ATCC 25922; broth microdilution per CLSI M07-A10; 18-24 hours at 35±2° C.; lowest concentration for complete growth inhibition. In kind it is cell-based. Here is the method:
Minimal Inhibitory Concentration (MIC) Determination:
The MIC of antibacterial compounds against multiple species and strains was determined using the broth microdilution method according to M07-A10 Clinical and Laboratory Standards Institute (CLSI) guidelines, using the appropriate broth medium. In short, the compound plates were prepared by dispensing 100 μL of each stock solution in the first well of a 96 well microtiter plate (MTP) at a concentration 100-fold higher than the final concentration desired in broth. Eleven serial 2-fold dilutions of the highest concentration were made in DMSO for new compounds and in water (or appropriate solution) for reference compounds [2]. 1 μL of each well was transferred in a new MTP, which served as the test plate by subsequent inoculation. This bacterial suspension was prepared from strains that were first sub-cultured on agar plates and incubated for 18-24 hours as appropriate. Following incubation, the inoculum was prepared from isolated colonies and adjusted to 0.5 McFarland turbidity standard (1 to 2×10^8 Colony Forming Units (CFU)/mL) in 0.9% saline. The bacterial suspension was then diluted 1:200 in appropriate sterile medium and within 15 minutes 100 μL/well were dispensed. Negative controls (lack of bacterial cells) and growth control wells (lack of compound) were included in all plates. MTPs were incubated for 18-24 hours at 35±2° C. in ambient air. The MIC value of each compound, expressed as μg/mL, was determined as the lowest concentration required for complete growth inhibition (no visible growth). • [1] CLSI (2015) Methods for dilution antimicrobial susceptibility tests for bacteria that grow aerobically; Approved Standard, Tenth Edition. CLSI Document M7-A10 (ISBN 1-56238-987-4). Wayne, PA: Clinical and Laboratory Standards Institute, 19087, USA. • [2] CLSI (2017) Performance Standards for Antimicrobial Susceptibility Testing; Twenty-Fifth Informational Supplement. CLSI Document M100-S27, CLSI, Wayne, Pennsylvania 19087, USA.
Table 1 provides the Minimal Inhibitory Concentrations (MIC) in micrograms per millilitre of the compounds of present invention obtained against the strain Escherichia coli ATCC 25922.
For the compound `O=C1COc2ncc(N3CC(CCNCC4Cc5cc(NC(=O)[C@@H]6C[C@H](O)CN6)cc(F)c5C4)OC3=O)nc2N1` (stereo partly drawn) [Example 46, (2S,4S)-N-[7-fluoro-2-[[2-[2-oxo-3-(3-oxo-4H-pyrazino[2,3-b][1,4]oxazin-6-yl)oxazolidin-5-yl]ethylamino]methyl]indan-5-yl]-4-hydroxy-pyrrolidine-2-carboxamide], the minimum inhibitory concentration (MIC) worked out at 0.5 µg/mL (≈ 0.9 µM).
The compound `CC(C)(O)C(=O)Nc1cc(F)c2c(c1)CC(CNCCC1CN(c3cnc4c(n3)NC(=O)CO4)C(=O)O1)C2` (stereo not drawn) [Example 18, N-[7-fluoro-2-[[2-[2-oxo-3-(3-oxo-4H-pyrazino[2,3-b][1,4]oxazin-6-yl)oxazolidin-5-yl]ethylamino]methyl]indan-5-yl]-2-hydroxy-2-methyl-propanamide] came in with an MIC of 0.25 µg/mL (≈ 0.473 µM).
The same measure, in the same setting: next, `O=C1COc2ncc(N3CC4(CCN(CC5Cc6cc(NC(=O)[C@H]7C[C@H](O)CN7)cc(F)c6C5)CC4)OC3=O)nc2N1` (stereo partly drawn) [Example 56, (2R,4S)—N-[7-Fluoro-2-[[2-oxo-3-(3-oxo-4H-pyrazino[2,3-b][1,4]oxazin-6-yl)-1-oxa-3,8-diazaspiro[4.5]decan-8-yl]methyl]indan-5-yl]-4-hydroxy-pyrrolidine-2-carboxamide]: no more than 0.06 µg/mL.
Still for that read-out and setting: next, `CN(C)CC(=O)Nc1cc(F)c2c(c1)CC(CNCCC1CN(c3cnc4c(n3)NC(=O)CO4)C(=O)O1)C2` (stereo not drawn) [Example 1, 2-(Dimethylamino)-N-[7-fluoro-2-[[2-[2-oxo-3-(3-oxo-4H-pyrazino[2,3-b][1,4]oxazin-6-yl)oxazolidin-5-yl]ethylamino]methyl]indan-5-yl]acetamide]: 0.125 µg/mL (≈ 0.237 µM).
On the same count and under the same terms, the figure for `C[C@H](C(=O)Nc1cc(F)c2c(c1)CC(F)(CNCCC1CN(c3cnc4c(n3)NC(=O)CO4)C(=O)O1)C2)N(C)C` (stereo partly drawn) [Example 33, (2R)-N-[2,7-difluoro-2-[[2-[2-oxo-3-(3-oxo-4H-pyrazino[2,3-b][1,4]oxazin-6-yl)oxazolidin-5-yl]ethylamino]methyl]indan-5-yl]-2-(dimethylamino)propanamide] is 0.5 µg/mL (≈ 0.894 µM); for `O=C1COc2ncc(N3CC4(CCN(CC5Cc6c(F)cc(NC(=O)[C@@H]7C[C@@H](O)CN7)c(F)c6C5)CC4)OC3=O)nc2N1` (stereo partly drawn) [Example 52, (2S,4R)—N-[4,7-Difluoro-2-[[2-oxo-3-(3-oxo-4H-pyrazino[2,3-b][1,4]oxazin-6-yl)-1-oxa-3,8-diazaspiro[4.5]decan-8-yl]methyl]indan-5-yl]-4-hydroxy-pyrrolidine-2-carboxamide] it is 0.25 µg/mL (≈ 0.417 µM); for `CN(C)[C@]1(C(=O)Nc2cc(F)c3c(c2)CC(CNCCC2CN(c4cnc5c(n4)NC(=O)CO5)C(=O)O2)C3)CCOC1` (stereo partly drawn) [Example 19] it is 2 µg/mL (≈ 3.43 µM).
Regarding `N[C@H](CO)C(=O)Nc1cc(F)c2c(c1)CC(CNCCC1CN(c3cnc4c(n3)NC(=O)CO4)C(=O)O1)C2` (stereo partly drawn) [Example 38, (2R)-2-amino-N-[7-fluoro-2-[[2-[2-oxo-3-(3-oxo-4H-pyrazino[2,3-b][1,4]oxazin-6-yl)oxazolidin-5-yl]ethylamino]methyl]indan-5-yl]-3-hydroxy-propanamide], the MIC turned out to be 0.5 µg/mL (≈ 0.944 µM).
Same read-out and setting: the figure for `C[C@H](C(=O)Nc1cc(F)c2c(c1)CC(CNCCC1CN(c3cnc4c(n3)NC(=O)CO4)C(=O)O1)C2)N(C)C` (stereo partly drawn) [Example 4, (2R)-2-(dimethylamino)-N-[7-fluoro-2-[[2-[2-oxo-3-(3-oxo-4H-pyrazino[2,3-b][1,4]oxazin-6-yl)oxazolidin-5-yl]ethylamino]methyl]indan-5-yl]propanamide] is 0.125 µg/mL (≈ 0.231 µM).
Still for that read-out and setting: the figure for `C[C@H](C(=O)Nc1cc(C#N)c2c(c1)CC(O)(CN1CCC3(CC1)CN(c1cnc4c(n1)NC(=O)CO4)C(=O)O3)C2)N(C)C` (stereo partly drawn) [Example 35, (2R)-N-[7-cyano-2-hydroxy-2-[[2-oxo-3-(3-oxo-4H-pyrazino[2,3-b][1,4]oxazin-6-yl)-1-oxa-3,8-diazaspiro[4.5]decan-8-yl]methyl]indan-5-yl]-2-(dimethylamino)propanamide] is 1 µg/mL (≈ 1.69 µM).
On the same count and under the same terms, the figure for `O=C(CN1CCOCC1)Nc1cc(F)c2c(c1)CC(CNCCC1CN(c3cnc4c(n3)NC(=O)CO4)C(=O)O1)C2` (stereo not drawn) [Example 5, N-[7-fluoro-2-[[2-[2-oxo-3-(3-oxo-4H-pyrazino[2,3-b][1,4]oxazin-6-yl)oxazolidin-5-yl]ethylamino]methyl]indan-5-yl]-2-morpholino-acetamide] is 1 µg/mL (≈ 1.76 µM); for `C[C@@]1(C(=O)Nc2cc(F)c3c(c2)CC(CN2CCC4(CC2)CN(c2cnc5c(n2)NC(=O)CO5)C(=O)O4)C3)C[C@@H](O)CN1` (single isomer, unassigned) [Example 72] it is 0.5 µg/mL (≈ 0.839 µM); for `C[C@H](C(=O)Nc1cc(C#N)c2c(c1)CC(CNCC[C@@H]1CN(c3cnc4c(n3)NC(=O)CO4)C(=O)O1)C2)N(C)C` (stereo partly drawn) [Example 22, (2R)-N-[7-cyano-2-[[2-[(5R)-2-oxo-3-(3-oxo-4H-pyrazino[2,3-b][1,4]oxazin-6-yl)oxazolidin-5-yl]ethylamino]methyl]indan-5-yl]-2-(dimethylamino)propanamide] it is 0.125 µg/mL (≈ 0.228 µM).
In turn, `C[C@H](C(=O)Nc1cc(F)c2c(c1F)CC(O)(CNCC1CN(c3cnc4c(n3)NC(=O)CO4)C(=O)O1)C2)N(C)C` (stereo partly drawn) [Example 30] displayed an MIC of 1 µg/mL (≈ 1.78 µM).
Same read-out and setting: next, `C[C@H](C(=O)Nc1cc(F)c2c(c1)C(O)C(CNCC[C@@H]1CN(c3cnc4c(n3)NC(=O)CO4)C(=O)O1)C2)N(C)C` (stereo partly drawn) [Example 66, (2R)-2-(Dimethylamino)-N-[7-fluoro-3-hydroxy-2-[[2-[(5R)-2-oxo-3-(3-oxo-4H-pyrazino[2,3-b][1,4]oxazin-6-yl)oxazolidin-5-yl]ethylamino]methyl]indan-5-yl]propanamide]: 4 µg/mL (≈ 7.17 µM); `C[C@H](C(=O)Nc1ccc2c(c1F)CC(CNCCC1CN(c3cnc4c(n3)NC(=O)CO4)C(=O)O1)C2)N(C)C` (stereo partly drawn) [Example 23]: 0.5 µg/mL (≈ 0.923 µM); `N#Cc1cc(NC(=O)[C@@H]2C[C@@H](O)CN2)cc2c1CC(CN1CCC3(CC1)CN(c1cnc4c(n1)NC(=O)CO4)C(=O)O3)C2` (stereo partly drawn) [Example 59, (2S,4R)—N-[7-cyano-2-[[2-oxo-3-(3-oxo-4H-pyrazino[2,3-b][1,4]oxazin-6-yl)-1-oxa-3,8-diazaspiro[4.5]decan-8-yl]methyl]indan-5-yl]-4-hydroxy-pyrrolidine-2-carboxamide]: no more than 0.06 µg/mL.
Same read-out and setting: next, `C[C@H](C(=O)Nc1cc(F)c2c(c1)CC(CN1CCC3(CC1)CN(c1cnc4c(n1)NC(=O)CO4)C(=O)O3)C2)N(C)C` (stereo partly drawn) [Example 7, (2R)-2-(dimethylamino)-N-[7-fluoro-2-[[2-oxo-3-(3-oxo-4H-pyrazino[2,3-b][1,4]oxazin-6-yl)-1-oxa-3,8-diazaspiro[4.5]decan-8-yl]methyl]indan-5-yl]propanamide]: 0.25 µg/mL (≈ 0.44 µM).
Same read-out and setting: next, `O=C(O)C(F)(F)F.O=C1COc2ncc(N3CC4(CCN(CC5Cc6cc(NC(=O)[C@]7(CO)CCCN7)cc(F)c6C5)CC4)OC3=O)nc2N1` (stereo partly drawn) [Example 53, (2R)—N-[7-Fluoro-2-[[2-oxo-3-(3-oxo-4H-pyrazino[2,3-b][1,4]oxazin-6-yl)-1-oxa-3,8-diazaspiro[4.5]decan-8-yl]methyl]indan-5-yl]-2-(hydroxymethyl)pyrrolidine-2-carboxamide; 2,2,2-trifluoroacetic Acid]: 0.25 µg/mL; `C[C@H](C(=O)Nc1cc(F)c2c(c1)C(F)C(CNCC[C@@H]1CN(c3cnc4c(n3)NC(=O)CO4)C(=O)O1)C2)N(C)C` (stereo partly drawn) [Example 67, (2R)—N-[3,7-Difluoro-2-[[2-[(5R)-2-oxo-3-(3-oxo-4H-pyrazino[2,3-b][1,4]oxazin-6-yl)oxazolidin-5-yl]ethylamino]methyl]indan-5-yl]-2-(dimethylamino)propanamide]: 0.5 µg/mL (≈ 0.894 µM); `COC1(CNCC2CN(c3cnc4c(n3)NC(=O)CO4)C(=O)O2)Cc2c(F)cc(NC(=O)[C@@H](C)N(C)C)c(F)c2C1` (stereo partly drawn) [Example 31]: 4 µg/mL (≈ 6.95 µM).
`C[C@@H](C(=O)Nc1cc(F)c2c(c1)CC(CNCCC1CN(c3cnc4c(n3)NC(=O)CO4)C(=O)O1)C2)N(C)C` (stereo partly drawn) [Example 9] came in with a minimal inhibitory concentration (MIC) of 0.125 µg/mL (≈ 0.231 µM).
`C[C@@H](C(=O)Nc1cc(F)c2c(c1)CC(CN1CCC3(CC1)CN(c1cnc4c(n1)NC(=O)CO4)C(=O)O3)C2)N(C)C` (stereo partly drawn) [Example 51, (2S)-2-(Dimethylamino)-N-[7-fluoro-2-[[2-oxo-3-(3-oxo-4H-pyrazino[2,3-b][1,4]oxazin-6-yl)-1-oxa-3,8-diazaspiro[4.5]decan-8-yl]methyl]indan-5-yl]propanamide] yielded an MIC of 0.125 µg/mL (≈ 0.22 µM).

The same assay, now with this note: strain Escherichia coli ATCC 25922; broth microdilution per CLSI M07-A10; 18-24 hours at 35±2° C.; lowest concentration for complete growth inhibition.
As for `C[C@H](C(=O)Nc1cc(F)c2c(c1)CC(CNCC[C@@H]1CN(c3cnc4c(n3)NC(=O)CO4)C(=O)O1)C2)N(C)C` (stereo partly drawn) [Example 71, (2R)-2-(Dimethylamino)-N-[7-fluoro-2-[[2-[(5R)-2-oxo-3-(3-oxo-4H-pyrazino[2,3-b][1,4]oxazin-6-yl)oxazolidin-5-yl]ethylamino]methyl]indan-5-yl]propanamide], the “Escherichia coli growth inhibition MIC” value came to 0.125 µg/mL.
